Laboratory results: article PMC10879502, “Linking ATP and allosteric sites to achieve superadditive binding with bivalent EGFR kinase inhibitors” (Communications Chemistry, 2024)
Several values for one entry are separate records, joined by “and”; a condition that tells them apart may be missing. Identical values can stand only once. Like-named read-outs stand apart in the source and are kept apart here.

Tests used:
[1] = tested on: Ba/F3 cells, LR/TM/CS EGFR; experiment: Ba/F3 resazurin antiproliferative assay; assay type: cell-based; details: Mus musculus, BaF3; Ba/F3, 72 h
Procedure: (§1) H1975 and HCC827 cells were obtained from the lab of Dr. Pasi Jänne (Dana-Farber Cancer Institute, 2022) cultured at 37 °C in RPMI 1640 media (Corning, 1004-CV) supplemented with 10% fetal bovine serum (Tissue Culture Biologicals, 35-010-CV) and 1% penicillin and streptomycin (P/S, Corning, 30-002-CI) and seeded overnight in a 96-well plate at a density of 60000 cells/mL. Cells were dosed with inhibitors to a final DMSO 0.5% in triplicate for 37 °C for 72 h. Cellular inhibition of growth was assessed by MTT viability assay according to the manufactures protocol (OZ Biosciences). Parental Ba/F3 cells was a generous gift from the laboratory of Dr. David Weinstock (in 2014), Dr. Pasi Jänne (2020) both of the Dana-Farber Cancer Institute and was used to generate the wildtype EGFR, L858R, and L858R/T790M EGFR mutant Ba/F3 cells[52],[67]. Ba/F3 cells were all cultured in RPMI1640 media with 10% fetal bovine serum and 1% penicillin and streptomycin. The Ba/F3 cell lines were tested negative for Mycoplasma using Mycoplasma Plus PCR Primer Set (Agilent) and were passaged and/or used for no longer than 4 weeks for all experiments. Assay reagents were purchased from MilliporeSigma (Cat# R7017-5G). Ba/F3 cells were plated and treated with increasing concentrations of inhibitors in triplicate for 72 h. Compounds were dispensed using the Tecan D300e Digital Dispenser. […] All experiments were repeated at least 3 times and values were reported as an average with standard deviation.

[2] = tested on: Ba/F3 cells, L858R/T790M EGFR; experiment: Ba/F3 resazurin antiproliferative assay; assay type: cell-based; details: Mus musculus, BaF3; Ba/F3, 72 h; read-out: EGFR EC50, LR/TM
Procedure: as §1

Ba/F3 cells, L858R EGFR = experiment: Ba/F3 resazurin antiproliferative assay; assay type: cell-based; details: Mus musculus, BaF3, 72 h, Ba/F3, 72 h; read-out: EGFR EC50, LR
Procedure: as §1

[3] = tested on: Ba/F3 cells, wildtype EGFR; experiment: Ba/F3 resazurin antiproliferative assay; assay type: cell-based; details: Mus musculus, BaF3; Ba/F3, 72 h; read-out: EGFR EC50, wt
Procedure: as §1

[4] = tested on: EGFR phosphorylation (pY1068) in H1975 cells; experiment: Western blot; assay type: cell-based, human
Procedure: H1975, H3255, H3255GR and HCC827 lung adenocarcinoma cells (obtained from Dr. Pasi Jänne in Dana-Farber Cancer Institute, 2022) were cultured in RPMI 1640 media (Corning, 1004-CV) supplemented with 10% FBS (Tissue Culture Biologicals, 35-010-CV) and 1% penicillin-streptomycin (P/S, Corning, 30-002-CI). All cell lines were tested negative for Mycoplasma using Myco-Sniff-Rapid™ Mycoplasma Luciferase Detection Kit Plus PCR Primer Set (MP biomedicals, 0930504-CF) and were passaged and/or used for no longer than 4 weeks for all experiments H1975 and HCC-827 cells were seeded in 6-well plates with 400,000 cells per well and incubated overnight. H3255 and H3255GR cells were seeded in 12-well plates with 200,000 cells per well and were grown to confluency after 48 h. Culture medium was removed, cells washed with PBS, and lysed with lysis buffer containing 5 M NaCl, 1 M TRIS pH 8.0, 10% SDS, 10% Triton X-100 and a tablet of protease and phosphatase inhibitor. Protein lysate concentration was analyzed using Pierce BCA kit (ThermoFisher, 23225). Protein samples (10 µg) were resolved on hand-cast Criterion Tris-HCl protein gels. Primary antibodies used; phospho-EGFR (Tyr1068; #2234, 1:1,000), EGFR (#4267; 1:1,000), phospho-AKT (Ser473; #4060, 1:1,000), AKT (#9272, 1:1,000), phospho-ERK1/2 (Thr202/Tyr204; #4370, 1:1,000), and ERK1/2 (#4695, 1:1,000) antibodies; were purchased from Cell Signaling Technology. Secondary Goat anti-rabbit IgG starbright blue 700 (Biorad, 64484700) and Anti-tubulin hFAB Rhodamine Tubulin (Bio-Rad, 64512248). Western blots were visualized with the ChemiDoc MP imager (Bio-Rad) utilizing the Image Lab Touch Software (version 2.4.0.03). All Western blot images are representatives of at least 3 independent replicate experiments.

[5] = molecular target: T1, EGFR L858R/T790M (LRTM) kinase domain (Homo sapiens, UniProt P00533, L858R/T790M); experiment: HTRF KinEASE-TK kinase activity assay; assay type: biochemical; details: for Linking coefficient E: LRTM IC50, upper limit; for activity: LRTM, read-out: percent inhibition
T1 construct: The EGFR kinase domain (residues 696–1022) was cloned into pTriEx; 6xHis (N, cleaved yes); GST (N, cleaved yes); made in house; host or cells: SF9 insect cells, baculovirus

[6] = molecular target: T2, EGFR L858R/T790M/C797S (LRTMCS) kinase domain (Homo sapiens, UniProt P00533, C797S/L858R/T790M); experiment: HTRF KinEASE-TK kinase activity assay; assay type: biochemical
T2 construct: The EGFR kinase domain (residues 696–1022) was cloned into pTriEx; 6xHis (N, cleaved yes); GST (N, cleaved yes); made in house; host or cells: SF9 insect cells, baculovirus

PCTK3 = PCTK3 (Homo sapiens, UniProt Q07002); experiment: KINOMEscan; assay type: binding; details: 1 μM
CSNK1G1 = molecular target: T3, CSNK1G1 (Homo sapiens, UniProt Q9HCP0); experiment: KINOMEscan; assay type: binding; details: 1 μM
T3 construct: purchased Eurofins DiscoverX Corporation

EIF2AK1 = EIF2AK1 (Homo sapiens, UniProt Q9BQI3); experiment: KINOMEscan; assay type: binding; details: 1 μM
ERK8 = ERK8 (Homo sapiens, UniProt Q8TD08); experiment: KINOMEscan; assay type: binding; details: 1 μM
SNRK = SNRK (Homo sapiens, UniProt Q9NRH2); experiment: KINOMEscan; assay type: binding; details: 1 μM
PKNB(M.tuberculosis) = PKNB(M.tuberculosis) (Mycobacterium tuberculosis, UniProt P9WI81); experiment: KINOMEscan; assay type: binding; details: 1 μM
[7] = enzyme 0.02 nM, ATP 100 µM, read-out: Biochemical EGFR IC50, LRTMCS

T3 sequence (Q9HCP0 whole entry): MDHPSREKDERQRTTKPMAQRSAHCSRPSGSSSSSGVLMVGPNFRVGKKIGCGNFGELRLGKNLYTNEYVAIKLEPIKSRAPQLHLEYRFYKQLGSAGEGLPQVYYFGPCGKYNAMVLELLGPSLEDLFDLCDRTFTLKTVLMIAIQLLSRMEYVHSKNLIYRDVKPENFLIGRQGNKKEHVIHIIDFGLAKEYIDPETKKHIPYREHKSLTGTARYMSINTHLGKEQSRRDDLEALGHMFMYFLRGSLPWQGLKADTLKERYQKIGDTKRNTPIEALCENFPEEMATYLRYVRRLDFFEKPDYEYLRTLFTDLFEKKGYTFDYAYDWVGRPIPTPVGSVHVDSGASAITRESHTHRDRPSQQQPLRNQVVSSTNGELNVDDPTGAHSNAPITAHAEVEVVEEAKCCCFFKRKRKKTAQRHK
Chain of SNRK (Q9NRH2 whole entry): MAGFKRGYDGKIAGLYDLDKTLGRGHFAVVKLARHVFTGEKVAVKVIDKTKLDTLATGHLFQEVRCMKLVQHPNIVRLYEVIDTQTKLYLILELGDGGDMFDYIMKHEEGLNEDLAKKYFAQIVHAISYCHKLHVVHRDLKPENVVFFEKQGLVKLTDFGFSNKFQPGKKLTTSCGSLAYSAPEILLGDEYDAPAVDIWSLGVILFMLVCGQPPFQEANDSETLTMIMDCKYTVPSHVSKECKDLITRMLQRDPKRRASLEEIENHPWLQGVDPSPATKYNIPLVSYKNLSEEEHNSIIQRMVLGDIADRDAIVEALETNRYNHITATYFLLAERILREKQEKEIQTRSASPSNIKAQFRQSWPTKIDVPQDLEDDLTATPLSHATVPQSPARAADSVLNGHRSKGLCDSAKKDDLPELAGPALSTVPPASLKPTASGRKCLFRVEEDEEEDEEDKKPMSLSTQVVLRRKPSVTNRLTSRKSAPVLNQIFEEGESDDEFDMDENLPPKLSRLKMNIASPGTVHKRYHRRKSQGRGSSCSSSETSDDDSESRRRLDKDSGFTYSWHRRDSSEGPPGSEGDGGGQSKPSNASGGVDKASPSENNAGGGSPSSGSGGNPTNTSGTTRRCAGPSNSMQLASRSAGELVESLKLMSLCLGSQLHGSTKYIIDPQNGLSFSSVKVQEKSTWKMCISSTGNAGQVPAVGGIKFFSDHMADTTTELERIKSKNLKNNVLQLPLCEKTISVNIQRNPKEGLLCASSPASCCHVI
Chain of PKNB(M.tuberculosis) (P9WI81 whole entry): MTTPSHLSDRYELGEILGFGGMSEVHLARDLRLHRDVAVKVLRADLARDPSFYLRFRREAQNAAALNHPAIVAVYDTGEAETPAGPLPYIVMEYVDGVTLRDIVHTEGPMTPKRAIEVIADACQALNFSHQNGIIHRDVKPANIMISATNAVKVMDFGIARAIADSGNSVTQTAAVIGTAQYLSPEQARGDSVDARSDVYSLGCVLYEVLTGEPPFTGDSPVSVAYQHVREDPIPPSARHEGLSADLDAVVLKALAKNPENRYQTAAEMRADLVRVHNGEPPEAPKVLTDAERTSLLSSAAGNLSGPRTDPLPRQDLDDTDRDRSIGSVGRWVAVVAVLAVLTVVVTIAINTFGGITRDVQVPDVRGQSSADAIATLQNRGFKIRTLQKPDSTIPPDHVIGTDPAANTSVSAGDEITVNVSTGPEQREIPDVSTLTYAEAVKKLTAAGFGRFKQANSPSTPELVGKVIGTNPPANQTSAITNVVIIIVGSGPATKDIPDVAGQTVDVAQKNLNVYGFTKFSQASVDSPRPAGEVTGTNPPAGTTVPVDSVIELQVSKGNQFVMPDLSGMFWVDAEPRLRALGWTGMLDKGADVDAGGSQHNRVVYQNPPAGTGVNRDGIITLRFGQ
Chain of PCTK3 (Q07002 whole entry): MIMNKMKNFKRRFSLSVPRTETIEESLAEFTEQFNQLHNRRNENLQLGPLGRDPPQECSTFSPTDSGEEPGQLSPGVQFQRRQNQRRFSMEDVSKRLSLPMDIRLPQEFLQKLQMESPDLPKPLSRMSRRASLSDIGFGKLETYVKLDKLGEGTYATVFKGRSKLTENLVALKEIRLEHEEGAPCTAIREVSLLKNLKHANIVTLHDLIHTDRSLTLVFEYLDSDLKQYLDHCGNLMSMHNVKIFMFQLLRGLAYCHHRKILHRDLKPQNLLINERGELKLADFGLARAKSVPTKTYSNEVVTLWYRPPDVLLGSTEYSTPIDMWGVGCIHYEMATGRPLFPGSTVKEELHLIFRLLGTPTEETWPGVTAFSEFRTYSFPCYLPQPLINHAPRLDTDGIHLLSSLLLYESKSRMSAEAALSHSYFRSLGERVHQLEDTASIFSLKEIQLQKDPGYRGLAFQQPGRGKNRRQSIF
Chain of ERK8 (Q8TD08 whole entry): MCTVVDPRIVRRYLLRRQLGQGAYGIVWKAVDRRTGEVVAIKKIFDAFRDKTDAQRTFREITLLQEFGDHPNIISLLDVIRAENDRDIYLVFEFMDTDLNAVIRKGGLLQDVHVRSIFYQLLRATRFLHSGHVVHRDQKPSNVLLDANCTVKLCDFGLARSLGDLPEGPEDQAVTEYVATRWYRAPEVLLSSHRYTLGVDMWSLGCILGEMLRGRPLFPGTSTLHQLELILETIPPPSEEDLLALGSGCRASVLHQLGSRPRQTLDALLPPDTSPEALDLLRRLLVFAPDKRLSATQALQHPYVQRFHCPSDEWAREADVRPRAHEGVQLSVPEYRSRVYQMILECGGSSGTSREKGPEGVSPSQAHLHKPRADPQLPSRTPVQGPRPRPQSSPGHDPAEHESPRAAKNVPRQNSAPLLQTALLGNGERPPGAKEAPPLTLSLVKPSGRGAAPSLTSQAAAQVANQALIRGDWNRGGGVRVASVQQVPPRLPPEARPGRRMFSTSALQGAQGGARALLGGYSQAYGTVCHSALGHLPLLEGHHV
Chain of EIF2AK1 (Q9BQI3 whole entry): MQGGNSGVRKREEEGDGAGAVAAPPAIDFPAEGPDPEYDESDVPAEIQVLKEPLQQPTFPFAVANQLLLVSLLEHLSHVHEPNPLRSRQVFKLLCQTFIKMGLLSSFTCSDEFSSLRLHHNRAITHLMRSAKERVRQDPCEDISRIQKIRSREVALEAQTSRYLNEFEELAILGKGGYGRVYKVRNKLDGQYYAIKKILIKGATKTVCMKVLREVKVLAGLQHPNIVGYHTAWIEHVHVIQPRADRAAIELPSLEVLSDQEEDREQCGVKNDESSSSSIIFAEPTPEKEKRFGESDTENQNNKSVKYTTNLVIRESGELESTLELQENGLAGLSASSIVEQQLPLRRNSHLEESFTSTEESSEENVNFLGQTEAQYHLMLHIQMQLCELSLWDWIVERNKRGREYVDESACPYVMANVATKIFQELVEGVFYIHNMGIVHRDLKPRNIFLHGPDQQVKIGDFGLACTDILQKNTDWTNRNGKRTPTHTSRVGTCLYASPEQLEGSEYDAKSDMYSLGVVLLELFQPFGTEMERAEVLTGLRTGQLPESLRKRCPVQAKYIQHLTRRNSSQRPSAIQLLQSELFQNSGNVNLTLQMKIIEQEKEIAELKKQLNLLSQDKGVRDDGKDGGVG

CSc1nc(-c2cccc(NC(=O)c3cccc4c3NC(=O)c3ccccc3N4)c2)c(-c2ccnc(NC(C)=O)c2)[nH]1 [Compound 2]
EC50 [1]: 6500 nM
EC50 [2]: > 10000 nM
EC50 (Ba/F3 cells, L858R EGFR): 5300 nM
EC50 [3]: 5100 nM
suppression of EGFR phosphorylation ([4]; H1975, 6 h): also effective in H1975 cells, however to a lesser extent than 4
Linking coefficient E ([5]; ATP fragment 5, allosteric fragment 10): < 1.0 M⁻¹
Linking coefficient E ([5]; ATP fragment 6, allosteric fragment 10): < 0. 59 M-1
activity ([5]; [Inhibitor] 1.3e-5 nM): 83.4% and 90.2% and 86.8%
activity ([5]; [Inhibitor] 3.18e-5 nM): 73.8% and 73.1% and 84.5%
activity ([5]; [Inhibitor] 7.78e-5 nM): 40.1% and 41.4% and 42.9%
activity ([5]; [Inhibitor] 0.000190441 nM, 190.4 fM): 19.1% and 19.2%
activity ([5]; [Inhibitor] 0.000465979 nM, 466 fM): 8.04% and 10%
activity ([5]; [Inhibitor] 0.00114018 nM, 1.14 pM): 5.9% and 5.75%
activity ([5]; [Inhibitor] 0.00278983 nM, 2.79 pM): 3.92% and 5.27%
activity ([5]; [Inhibitor] 0.00682626 nM, 6.826 pM): 3.83% and 4.05%
activity ([5]; [Inhibitor] 0.0167028 nM, 16.7 pM): 2.18% and 2.36%
IC50 ([5]; Table S1, read-out: IC50, LRTM): 0.051 to 0.064 nM and 0.051 to 0.059 nM
IC50 ([5]; enzyme 0.02 nM, ATP 100 µM, read-out: Biochemical EGFR IC50, LRTM): 0.059 ± 0.005 nM
linking coefficients ([5]; limits estimated from LRTM IC50 values): 0.5 to 1.0 M⁻¹
activity ([6]; LRTMCS, [Inhibitor] 1.3e-5 nM, read-out: percent inhibition): 93.5% and 92.2% and 100%
activity ([6]; LRTMCS, [Inhibitor] 3.18e-5 nM, read-out: percent inhibition): 90.3% (2×) and 95.9%
activity ([6]; LRTMCS, [Inhibitor] 7.78e-5 nM, read-out: percent inhibition): 71% and 67.2% and 70.8%
activity at 190.4 fM ([6]; LRTMCS, [Inhibitor] 0.000190441 nM, read-out: percent inhibition): 39.1%
activity at 466 fM ([6]; LRTMCS, [Inhibitor] 0.000465979 nM, read-out: percent inhibition): 22.7%
activity at 1.14 pM ([6]; LRTMCS, [Inhibitor] 0.00114018 nM, read-out: percent inhibition): 13.5%
activity at 2.79 pM ([6]; LRTMCS, [Inhibitor] 0.00278983 nM, read-out: percent inhibition): 8.55%
activity at 6.826 pM ([6]; LRTMCS, [Inhibitor] 0.00682626 nM, read-out: percent inhibition): 4.28%
activity at 16.7 pM ([6]; LRTMCS, [Inhibitor] 0.0167028 nM, read-out: percent inhibition): 1.88%
IC50 [6, 7]: 0.064 ± 0.004 nM
IC50 ([6]; read-out: IC50, LRTMCS): 0.051 to 0.064 nM

C=CC(=O)Nc1ccc(OC)c(Nc2cc(-c3[nH]c(CC)nc3-c3cccc(NC(=O)c4cccc5c4NC(=O)c4ccccc4N5)c3)ccn2)c1 [Compound 4]
POC (PCTK3): 93% of control
EC50 [1]: > 10000 nM
EC50 [2]: 770 nM
EC50 (Ba/F3 cells, L858R EGFR): 220 nM
EC50 [3]: 950 nM
POC (CSNK1G1): 93% of control
concentration suppressing LRTM phosphorylation (pY1068), pERK and pAKT ([4]; H1975, dosed for 6 h): below 1 µM
POC (EIF2AK1): 75% of control
POC (ERK8): 100% of control
POC (SNRK): 82% of control
POC (PKNB(M.tuberculosis)): 97% of control
IC50 [6, 7]: 1.8 ± 0.3 nM
IC50 improvement over orthosteric-only 7, LRTMCS ([6]; reversible inhibition): 100 fold
